Source: patent publication US5366733A, “Method for the treatment of periodontal disease by sustained delivery of a therapeutic agent to the periodontal pocket, and composition of matter therefor” (priority 1991, dated 1994)

Tests used:
[1] = tested on: organisms associated with periodontal disease; details: cited from earlier work
[2] = dog, in vivo
Description: Therefore, a study to evaluate four different minocycline periodontal formulations relative to determining minocycline levels in crevicular fluid was conducted in a dog model. The study utilized beagle dogs with surgically created "chronic" intrabony periodontal defects. This model entails the extraction of the two lower fourth premolars and the induction of surgically created intrabony defects at the mesial surface of the first molars and distal surface of the third premolars.
In sequence, the defects were created as follows: First, the lower fourth premolars were extracted, sockets were allowed to heal for one month, and dogs received a full mouth scaling and tooth cleaning. […] Dogs were monitored for an additional four weeks.
For evaluation of crevicular levels of minocycline, dogs were placed under general anesthesia, and the various formulations were administered into the periodontal pockets associated with the created defects. […] The strip was then removed, and the relative amount of fluid was determined by a Periotron 6000 instrument. […]
Strips were assayed for minocycline by a microbiological technique that involves use of the minocycline-susceptible bacterium, Bacillus cereus. […] Zones of inhibited bacterial growth were plotted, and the quantity of minocycline present was determined by comparison with zones obtained with minocycline solutions of known concentration. […]

CN(C)c1ccc(O)c2c1C[C@H]1C[C@H]3[C@H](N(C)C)C(O)=C(C(N)=O)C(=O)[C@@]3(O)C(O)=C1C2=O [minocycline, 7-dimethylamino-6-deoxy-6-demethyltetracycline]
MIC's for organisms associated with periodontal disease [1]: 0.05 to 1.56 µg/mL | Periods for which minimum inhibitory concentrations (MIC's) can be achieved [2]: up to two
